The values that follow come from patent US9708279B2, “2-acylaminothiazoles for the treatment of cancer” (UNIVERSITA′ DEGLI STUDI DI MILANO-BICOCCA, priority 2013, dated 2017).

Assay [1] concerns the target recombinant wild-type ALK kinase (rALK) (Homo sapiens (Human), UniProt Q9UM73). The experiment in a line: ELISA-based in vitro kinase assay, wild-type ALK. The format is biochemical. The note with it: 0.3 mM ATP, read-out: ALK WT IC50. For orientation: ELISA stands for enzyme-linked immunosorbent assay.
Method: ELISA-Based in vitro Kinase Assay
GST-tagged recombinant wild-type or L1196M mutated ALK kinase (rALK) was expressed in Sf9 insect cells using the pBacPAK baculovirus vector system (Clontech) and purified using Glutathione Sepharose 4B affinity beads (GE Healthcare). Recombinant 3C protease was used to remove the GST tag. Purified ALK was used to screen inhibitors in the ELISA-based kinase assay, as follows: Nunc-Immuno 96-well plates were incubated overnight at 30° C. with coating solution containing 2 μg of a specific ALK peptide substrate ([sequence]) in PBS. Wells were then washed with 200 μL of wash buffer (PBS-Tween 0.05%) and incubated with 4% BSA in PBS for at least 2 h at 30° C. The kinase reaction was performed in the presence of 50 mM Tris pH 7.5, 5 mM MnCl2, 5 mM MgCl2, 0.3 mM ATP and purified rALK in a total volume of 100 μL/well at 30° C. for 15 min. For inhibitor testing the reaction mix was preincubated with inhibitor or vehicle for 10 min at room temperature before transferring to the ELISA plate. After the reaction, the wells were washed 5 times with 200 uL of wash buffer. Phosphorylated peptide was detected using 100 μL/well of a mouse monoclonal anti-phosphotyrosine antibody (clone 4G10 UpstateBiotech Ltd) diluted 1:2000 in PBS+4% BSA. After 30 min incubation at room temperature the antibody was removed and wells were washed as described above. 100 μL of a secondary antibody (anti-mouse IgG, Horseradish Peroxidase linked whole antibody, Amersham Pharmacia Biotech) diluted 1:1000 in PBS+4% BSA was added to each well and the plate was incubated again for 30 min at room temperature before washing as above. The plate was developed using 100 μL/well TMB Substrate Solution (Pierce) and the reaction was stopped by adding an equal volume of 1M H2SO4. Finally, the absorbance was read at 450 nm using an ELISA plate reader (Bio-Rad).
In assay [2] the test system is parental untransformed BaF3 cells. The experiment in a line: Tritiated thymidine uptake cell proliferation assay, parental BaF3. The note with it: Mus musculus. The class given is cell-based. The procedure: (§1) Tritiated Thymidine Uptake Cell Proliferation Assay
The parent untransformed BaF3 cells and ALK-negative cells are used as controls. Cells are seeded in U-bottomed 96-well plates at 10 000 cells/well in a volume of 100 μL in supplemented medium. In the case of the parent untransformed BaF3 cells, the medium is supplemented with IL-3. Serial dilutions of inhibitors are added to the appropriate wells and volumes adjusted to 200 μL. Controls were treated with the equivalent volume of vehicle, DMSO, alone. Plates are incubated at 37° C. for 72 h. ^3[H]-thymidine (1 μCiCi/well) is added for the last 8 h of incubation. Cells are harvested on to paper filters and ^3[H]-thymidine incorporation is measured using a β scintillation counter (1430 MicroBeta, Wallac, Turku, Finland). The 50% inhibitory concentration (IC50) is defined as the concentration of inhibitor, expressed in micromolar, that give a 50% decrease in ^3[H]-thymidine uptake compared with controls.

In assay [3] the test system is BaF3 cells transformed with the oncogenic fusion protein NPM/ALK. Briefly: Tritiated thymidine uptake cell proliferation assay, BaF3 NPM/ALK. The format is cell-based. The note with it: for IC50: BaF3 NPM/ALK cells, 72 h, 3H-thymidine uptake, read-out: NPM/ALK WT IC50; for Selectivity Index (WT): parental BaF3 versus BaF3 NPM/ALK WT. How it is done: as §1
The parent untransformed BaF3 cells and ALK-negative cells are used as controls. Cells are seeded in U-bottomed 96-well plates at 10 000 cells/well in a volume of 100 μL in supplemented medium. In the case of the parent untransformed BaF3 cells, the medium is supplemented with IL-3. Serial dilutions of inhibitors are added to the appropriate wells and volumes adjusted to 200 μL. Controls were treated with the equivalent volume of vehicle, DMSO, alone. Plates are incubated at 37° C. for 72 h. ^3[H]-thymidine (1 μCiCi/well) is added for the last 8 h of incubation.

[4] abbreviates: parental BaF3 cells (IL-3), 72 h, 3H-thymidine uptake, read-out: Parental IC50.

Where two headings read alike, the source gives them in different places.

Chain of recombinant wild-type ALK kinase (rALK) (Q9UM73 19-1620): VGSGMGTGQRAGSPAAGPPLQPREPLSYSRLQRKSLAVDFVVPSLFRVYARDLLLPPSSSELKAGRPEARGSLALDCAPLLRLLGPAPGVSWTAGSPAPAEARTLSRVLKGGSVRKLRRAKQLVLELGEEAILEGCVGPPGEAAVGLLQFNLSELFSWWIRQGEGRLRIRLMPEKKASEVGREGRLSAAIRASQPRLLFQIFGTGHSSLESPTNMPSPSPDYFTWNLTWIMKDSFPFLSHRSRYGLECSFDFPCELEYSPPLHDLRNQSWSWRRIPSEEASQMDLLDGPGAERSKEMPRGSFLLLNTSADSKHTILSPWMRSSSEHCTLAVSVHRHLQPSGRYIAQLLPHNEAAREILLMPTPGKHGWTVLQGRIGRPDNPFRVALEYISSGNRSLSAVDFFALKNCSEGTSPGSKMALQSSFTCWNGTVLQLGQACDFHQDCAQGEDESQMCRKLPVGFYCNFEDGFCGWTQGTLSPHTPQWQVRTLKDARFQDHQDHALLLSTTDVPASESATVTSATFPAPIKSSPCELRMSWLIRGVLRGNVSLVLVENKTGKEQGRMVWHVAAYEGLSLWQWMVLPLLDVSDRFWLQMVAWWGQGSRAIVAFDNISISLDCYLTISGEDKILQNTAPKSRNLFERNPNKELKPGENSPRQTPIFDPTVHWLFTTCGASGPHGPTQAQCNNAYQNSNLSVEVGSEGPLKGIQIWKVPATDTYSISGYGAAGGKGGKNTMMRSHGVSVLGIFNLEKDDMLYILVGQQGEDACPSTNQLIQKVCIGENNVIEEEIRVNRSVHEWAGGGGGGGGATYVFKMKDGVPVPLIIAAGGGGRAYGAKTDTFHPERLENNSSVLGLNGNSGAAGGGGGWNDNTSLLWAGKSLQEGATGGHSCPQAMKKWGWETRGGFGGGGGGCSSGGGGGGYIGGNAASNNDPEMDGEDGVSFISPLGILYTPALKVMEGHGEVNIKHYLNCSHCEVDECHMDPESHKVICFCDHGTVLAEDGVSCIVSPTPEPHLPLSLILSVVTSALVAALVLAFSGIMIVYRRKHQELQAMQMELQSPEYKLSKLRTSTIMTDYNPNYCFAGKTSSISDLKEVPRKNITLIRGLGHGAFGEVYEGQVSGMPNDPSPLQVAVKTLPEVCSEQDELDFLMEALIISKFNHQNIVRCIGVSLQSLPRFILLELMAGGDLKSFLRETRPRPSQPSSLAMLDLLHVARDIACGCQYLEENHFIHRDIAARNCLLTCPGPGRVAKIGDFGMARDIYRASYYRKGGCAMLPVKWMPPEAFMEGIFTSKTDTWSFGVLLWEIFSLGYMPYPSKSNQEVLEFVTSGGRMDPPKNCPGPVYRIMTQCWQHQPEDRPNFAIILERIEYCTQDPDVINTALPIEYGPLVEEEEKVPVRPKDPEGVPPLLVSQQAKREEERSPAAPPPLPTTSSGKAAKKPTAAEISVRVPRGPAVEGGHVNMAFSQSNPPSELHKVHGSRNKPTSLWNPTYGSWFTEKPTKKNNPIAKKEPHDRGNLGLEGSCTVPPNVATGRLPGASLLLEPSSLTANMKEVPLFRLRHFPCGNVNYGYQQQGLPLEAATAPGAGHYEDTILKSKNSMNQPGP

For `CN1CCN(C(=O)c2ccc(-c3ccc(C(=O)Nc4nc(-c5cccc(C#Cc6ccccc6OC(F)(F)F)c5)cs4)o3)cc2)CC1` [Example 43, 5-(4-(4-methylpiperazine-1-carbonyl)phenyl)-N-(4-(3-((2-(trifluoromethoxy)phenyl)ethynyl)phenyl)thiazol-2-yl)furan-2-carboxamide], the IC50 is above 100 µM in assay [1], 4.5 µM in assay [2] (setting [4]) and 4.9 µM in assay [3]. Moreover, in assay [3], the “Selectivity Index (WT)” value is recorded as 1.
`CC(C)[Si](C#Cc1cccc(-c2csc(NC(=O)c3ccc(CNCCN(C)C)cc3)n2)c1)(C(C)C)C(C)C` [Example 44, 4-(((2-(dimethylamino)ethyl)amino)methyl)-N-(4-(3-((triisopropylsilyl)ethynyl)phenyl)thiazol-2-yl)benzamide]: the figures for the IC50 in assay [1], in assay [2] (setting [4]) and in assay [3] were above 100 µM, 7.8 µM and 5.1 µM, respectively.
For `Cc1ccc(-c2csc(NC(=O)c3ccc(CN4CCN(C)CC4)cc3)n2)cc1C#Cc1ccc(F)cc1` [Example 9, N-(4-(3-((4-fluorophenyl)ethynyl)-4-methylphenyl)thiazol-2-yl)-4-((4-methylpiperazin-1-yl)methyl)benzamide], the IC50 in assay [1] was above 100 µM; in assay [2] (setting [4]), 4 µM; in assay [3] it was 2.3 µM. The “Selectivity Index (WT)” value in assay [3] is given as 2.
Turning to `O=C(Nc1nc(-c2cccc(C#Cc3cc(C(F)(F)F)cc(C(F)(F)F)c3)c2)cs1)c1ccc(CN2CCOCC2)cc1` [Example 39, N-(4-(3-((3,5-bis(trifluoromethyl)phenyl)ethynyl)phenyl)thiazol-2-yl)-4-(morpholinomethyl)benzamide], the IC50 in assay [1] was above 100 µM; in assay [2] (setting [4]), 33 µM; in assay [3], 9 µM. The “Selectivity Index (WT)” value in assay [3] is on record as 4.
Take `CN1CCN(C(=O)c2ccc(-c3ccc(C(=O)Nc4nc(-c5cccc(C#Cc6cc(C(F)(F)F)cc(C(F)(F)F)c6)c5)cs4)o3)cc2)CC1` [Example 34, N-(4-(3-((3,5-bis(trifluoromethyl)phenyl)ethynyl)phenyl)thiazol-2-yl)-5-(4-(4-methylpiperazine-1-carbonyl)phenyl)furan-2-carboxamide]: the IC50 is above 100 µM in assay [1], 4 µM in assay [2] (setting [4]) and 1.9 µM in assay [3]. In assay [3], the “Selectivity Index (WT)” value was 2.
Take `CN1CCN(Cc2ccc(C(=O)Nc3nc(-c4cccc(C#C[Si](c5ccccc5)(c5ccccc5)C(C)(C)C)c4)cs3)cc2)CC1` [Example 25, N-(4-(3-((tert-butyldiphenylsilyl)ethynyl)phenyl)thiazol-2-yl)-4-((4-methylpiperazin-1-yl)methyl)benzamide]: in assay [2] (BaF3, read-out: Parental IC50), the IC50 is 12 µM.
Consider `CN1CCN(Cc2ccc(C(=O)Nc3nc(-c4ccc(C#Cc5ccccc5C(F)(F)F)c(C#Cc5ccccc5C(F)(F)F)c4)cs3)cc2)CC1` [Example 13, N-(4-(3,4-bis((2-(trifluoromethyl)phenyl)ethynyl)phenyl)thiazol-2-yl)-4-((4-methylpiperazin-1-yl)methyl)benzamide], for which the IC50 in assay [2] (BaF3, read-out: Parental IC50) is 3.1 µM.
On to `COc1ccc(C#Cc2cc(-c3csc(NC(=O)c4ccc(CN5CCN(C)CC5)cc4)n3)ccc2C)cc1` [Example 6, N-(4-(3-((4-methoxyphenyl)ethynyl)-4-methylphenyl)thiazol-2-yl)-4-((4-methylpiperazin-1-yl)methyl)benzamide], for which the IC50 was above 100 µM in assay [1], 6.6 µM in assay [2] (setting [4]) and 2.1 µM in assay [3]. For the same compound, in assay [3], the “Selectivity Index (WT)” value came out at 3.
As for `Cc1ccc(-c2csc(NC(=O)c3ccc(CN4CCN(C)CC4)cc3)n2)cc1C#C[Si](C(C)C)(C(C)C)C(C)C` [Example 14, N-(4-(4-methyl-3-((triisopropylsilyl)ethynyl)phenyl)thiazol-2-yl)-4-((4-methylpiperazin-1-yl)methyl)benzamide], the IC50 in assay [2] (BaF3, read-out: Parental IC50) was 7.8 µM.
With `CC(C)[Si](C#Cc1ccc(-c2csc(NC(=O)c3ccc(CN4CCN(C)CC4)cc3)n2)cc1C#C[Si](C(C)C)(C(C)C)C(C)C)(C(C)C)C(C)C` [Example 16, N-(4-(3,4-bis((triisopropylsilyl)ethynyl)phenyl)thiazol-2-yl)-4((4-methylpiperazin-1-yl)methyl)benzamide], the IC50 in assay [2] (BaF3, read-out: Parental IC50) is above 50 µM.
Take `CN1CCN(Cc2ccc(C(=O)Nc3nc(-c4ccc(C#C[Si](C)(C)C(C)(C)C)cc4)cs3)cc2)CC1` [Example 37, N-(4-(4-((tert-butyldimethylsilyl)ethynyl)phenyl)thiazol-2-yl)-4-((4-methylpiperazin-1-yl)methyl)benzamide]: in assay [2] (BaF3, read-out: Parental IC50), the IC50 turned out to be 2.4 µM.
As for `CC(C)[Si](C#Cc1ccc(-c2csc(NC(=O)c3ccc(CN4CCN(C)CC4)cc3)n2)cc1)(C(C)C)C(C)C` [Example 35, 4-((4-methylpiperazin-1-yl)methyl)-N-(4-(4-((triisopropylsilyl)ethynyl)phenyl)thiazol-2-yl)benzamide], the IC50 in assay [2] (BaF3, read-out: Parental IC50) is 7.3 µM.
On the same count and under the same terms, to `CN1CCN(Cc2ccc(C(=O)Nc3nc(-c4cccc(C#CCO[Si](C)(C)C(C)(C)C)c4)cs3)cc2)CC1` [Example 23, N-(4-(3-(3-((tert-butyldimethylsilyl)oxy)prop-1-yn-1-yl)phenyl)thiazol-2-yl)-4-((4-methylpiperazin-1-yl)methyl)benzamide] belongs 5.9 µM; to `CC(C)[Si](C#Cc1cccc(-c2csc(NC(=O)c3ccc(Cn4cnnn4)cc3)n2)c1)(C(C)C)C(C)C` [Example 45], 8 µM.
As for `Cc1ccc(C#Cc2cccc(-c3csc(NC(=O)c4ccc(CN5CCN(C)CC5)cc4)n3)c2)cc1` [Example 2, 4-((4-methylpiperazin-1-yl)methyl)-N-(4-(3-(p-tolylethynyl)phenyl)thiazol-2-yl)benzamide], the IC50 in assay [2] (BaF3, read-out: Parental IC50) worked out at 5.5 µM.
As to `CN1CCN(Cc2ccc(C(=O)Nc3nc(-c4cccc(C#Cc5ccccc5F)c4)cs3)cc2)CC1` [Example 31, N-(4-(3-((2-fluorophenyl)ethynyl)phenyl)thiazol-2-yl)-4-((4-methylpiperazin-1-yl)methyl)benzamide], in assay [2] (BaF3, read-out: Parental IC50), the IC50 is 2.2 µM.
As to `CC(C)[Si](C#Cc1cccc(-c2csc(NC(=O)c3ccc(CN4CCOCC4)cc3)n2)c1)(C(C)C)C(C)C` [Example 38, 4-(morpholinomethyl)-N-(4-(3-((triisopropylsilyl)ethynyl)phenyl)thiazol-2-yl)benzamide], in assay [2] (BaF3, read-out: Parental IC50), the IC50 is above 50 µM.
As for `CN1CCN(Cc2ccc(C(=O)Nc3nc(-c4cccc(C#CC5=CCCCC5)c4)cs3)cc2)CC1` [Example 19, N-(4-(3-(cyclohex-1-en-1-ylethynyl)phenyl)thiazol-2-yl)-4-((4-methylpiperazin-1-yl)methyl)benzamide], in assay [2] (BaF3, read-out: Parental IC50), the IC50 turned out to be 0.49 µM.
Take `CC(C)[Si](OCC#Cc1cccc(-c2csc(NC(=O)c3ccc(CN4CCN(C)CC4)cc3)n2)c1)(C(C)C)C(C)C` [Example 22, 4-((4-methylpiperazin-1-yl)methyl)-N-(4-(3-(3-((triisopropylsilyl)oxy)prop-1-yn-1-yl)phenyl)thiazol-2-yl)benzamide]: the IC50 in assay [2] (BaF3, read-out: Parental IC50) came out at 8.5 µM.
Regarding `CN1CCN(C(=O)c2ccc(-c3ccc(C(=O)Nc4nc(-c5cccc(C#Cc6ccccc6C(F)(F)F)c5)cs4)o3)cc2)CC1` [Example 29, 5-(4-(4-methylpiperazine-1-carbonyl)phenyl)-N-(4-(3-((2-(trifluoromethyl)phenyl)ethynyl)phenyl)thiazol-2-yl)furan-2-carboxamide], the IC50 in assay [2] (BaF3, read-out: Parental IC50) was 10 µM.
Same read-out and setting: the figure for `CC(C)(C)[Si](C#Cc1cccc(-c2csc(NC(=O)c3ccc(CN4CCOCC4)cc3)n2)c1)(c1ccccc1)c1ccccc1` [Example 41, N-(4-(3-((tert-butyldiphenylsilyl)ethynyl)phenyl)thiazol-2-yl)-4-(morpholinomethyl)benzamide] is above 50 µM.
